Seven compounds from the supplement of paper PMC10011410 can be followed below.

In test [1] the test system is U-2 OS. The experiment in a line: cell painting activity score (Mahalanobis distance from DMSO wells); higher = stronger morphological phenotype. The note with it: 24 h. The procedure:
(§1)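 Cell painting in U-2 OS cells (384-well, about 1,500 cells per well), compound exposure 24 h, usually six 2-fold concentrations from 20 to 0.625 uM (some compounds higher or lower). Relative cell count is the cell number per well relative to DMSO wells. Activity score is the Mahalanobis distance of the morphological profile from DMSO control wells. Mean of four technical replicate plates.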

The test system of test [2] is U-2 OS. The experiment in a line: relative cell count vs DMSO (cell painting) (fraction of DMSO control); higher = more cells remaining (less cytotoxic). The note with it: 24 h. The procedure:
as §1

Test [3] deals with U-2 OS. The experiment in a line: AUC of culture confluence over time (live-cell imaging) (AUC (confluence % x time)); higher = more confluent culture (less growth inhibition). The procedure:
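Live-cell Incucyte imaging of U-2 OS cells in F-12K medium. Compounds were tested mostly at 5, 10 and 20 uM, and cells were imaged every 4 h for up to 60 h. Value is the area under the curve of phase-contrast confluence over time.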

As for `N#CC(C#N)=NNc1cccc(Cl)c1`, the “cell painting activity score” value in the test with U-2 OS [1] (0.625 µM) was 5.76; in the test with U-2 OS [1] (1.25 µM), 5.02; in the test on U-2 OS [1] (2.5 µM) it was 7.58; in the test on U-2 OS [1] (5 µM), 9.31; in the test with U-2 OS [1] (10 µM), 13.4; in the test with U-2 OS [1] (20 µM) it was 16.2. Further, the relative cell count with U-2 OS [2] (0.625 µM) was 0.975; in the test on U-2 OS [2] (1.25 µM), 0.949; in the test on U-2 OS [2] (2.5 µM) it was 0.98; in the test with U-2 OS [2] (5 µM), 0.897; with U-2 OS [2] (10 µM) it was 0.711; with U-2 OS [2] (20 µM) it was 0.491.
Regarding `CC1(C)CC[C@]2(C(=O)O[C@@H]3O[C@H](CO)[C@@H](O)[C@H](O)[C@H]3O)CC[C@]3(C)C(=CC[C@@H]4[C@@]5(C)CC[C@H](O[C@@H]6O[C@H](C(=O)O)[C@@H](O)[C@H](O)[C@H]6O[C@@H]6O[C@H](CO)[C@@H](O)[C@H](O)[C@H]6O)C(C)(C)[C@@H]5CC[C@]43C)[C@@H]2C1`, the “cell painting activity score” value turned out to be 4.68 in the test with U-2 OS [1] (0.625 µM); 4.76 in the test on U-2 OS [1] (1.25 µM); 5.42 in the test with U-2 OS [1] (2.5 µM); 5.24 in the test with U-2 OS [1] (5 µM); 6.27 in the test on U-2 OS [1] (10 µM); 9.37 in the test on U-2 OS [1] (20 µM). Moreover, the relative cell count was 0.971 with U-2 OS [2] (0.625 µM); 0.973 in the test with U-2 OS [2] (1.25 µM); 0.949 in the test with U-2 OS [2] (2.5 µM); 0.938 in the test on U-2 OS [2] (5 µM); 0.915 with U-2 OS [2] (10 µM); 0.964 in the test with U-2 OS [2] (20 µM). The “AUC of culture confluence over time” value amounted to 54.4 in the test with U-2 OS [3] (5 µM), 51.1 with U-2 OS [3] (10 µM) and 57.6 with U-2 OS [3] (20 µM).
For `O=C([O-])C(=O)[O-].[NH-][C@@H]1CCCC[C@H]1[NH-].[Pt+4]`, the “cell painting activity score” value in the test on U-2 OS [1] (0.625 µM) turned out to be 4.3; in the test with U-2 OS [1] (1.25 µM), 8.95; in the test with U-2 OS [1] (2.5 µM) it was 20.4; with U-2 OS [1] (5 µM), 20; in the test on U-2 OS [1] (10 µM) it was 19.8; in the test with U-2 OS [1] (20 µM), 22.1. The relative cell count with U-2 OS [2] (0.625 µM) was determined as 0.86; with U-2 OS [2] (1.25 µM), 0.786; with U-2 OS [2] (2.5 µM) it was 0.66; with U-2 OS [2] (5 µM), 0.501; in the test with U-2 OS [2] (10 µM), 0.35; with U-2 OS [2] (20 µM) it was 0.203.
With `Oc1ccc(/C=C/c2cc(O)cc(O)c2)cc1`, the entries for the “AUC of culture confluence over time” value in the test on U-2 OS [3] (5 µM), in the test with U-2 OS [3] (10 µM) and in the test on U-2 OS [3] (20 µM) were 49, 46.4 and 42.5, respectively.
Regarding `CC(C)C[C@@H](C=O)NC(=O)[C@@H](CC(C)C)NC(=O)[C@H](CC(C)C)NC(=O)OCc1ccccc1`, the “cell painting activity score” value with U-2 OS [1] (0.625 µM) came out at 4.19; in the test with U-2 OS [1] (1.25 µM), 4.34; with U-2 OS [1] (2.5 µM), 5.35; with U-2 OS [1] (5 µM), 5.4; in the test on U-2 OS [1] (10 µM), 3.89; with U-2 OS [1] (20 µM) it was 7.43. For the same compound, the relative cell count worked out at 1 in the test with U-2 OS [2] (0.625 µM); 0.959 with U-2 OS [2] (1.25 µM); 0.944 in the test on U-2 OS [2] (2.5 µM); 0.993 in the test on U-2 OS [2] (5 µM); 0.986 in the test with U-2 OS [2] (10 µM); 0.909 in the test with U-2 OS [2] (20 µM).
Consider `CC(C)C[C@@H](C=O)NC(=O)[C@H](CC(C)C)NC(=O)[C@H](CC(C)C)NC(=O)OCc1ccccc1`, for which the “cell painting activity score” value amounted to 5.55 with U-2 OS [1] (0.625 µM); 9.38 with U-2 OS [1] (1.25 µM); 15.5 with U-2 OS [1] (2.5 µM); 15.7 in the test on U-2 OS [1] (5 µM); 16 in the test with U-2 OS [1] (10 µM); 17.7 with U-2 OS [1] (20 µM). The relative cell count with U-2 OS [2] (0.625 µM) was found to be 0.974; in the test on U-2 OS [2] (1.25 µM), 0.824; with U-2 OS [2] (2.5 µM), 0.479; with U-2 OS [2] (5 µM), 0.226; in the test with U-2 OS [2] (10 µM) it was 0.124; with U-2 OS [2] (20 µM), 0.103.
With `COc1c(O)c2c(=O)cc3c4c5c(cc(=O)c6c(O)c(OC)c(CC(C)O)c(c(c1CC(C)O)c24)c65)OCO3` (stereo not drawn), the “cell painting activity score” value with U-2 OS [1] (0.625 µM) is 4.68; with U-2 OS [1] (1.25 µM) it was 7.7; in the test on U-2 OS [1] (2.5 µM), 10.5; with U-2 OS [1] (5 µM), 13; with U-2 OS [1] (10 µM), 12; in the test on U-2 OS [1] (20 µM), 13.9. Also, the relative cell count is 0.971 in the test with U-2 OS [2] (0.625 µM); 0.918 in the test with U-2 OS [2] (1.25 µM); 0.859 with U-2 OS [2] (2.5 µM); 0.682 in the test on U-2 OS [2] (5 µM); 0.499 with U-2 OS [2] (10 µM); 0.366 with U-2 OS [2] (20 µM).
